Measurements taken from patent US5773438A, “Synthetic matrix metalloprotease inhibitors and use thereof” (Glycomed Incorporated, priority 1994, dated 1998).
Entries after “also recorded” stand apart in the source; their conditions may differ.

Legend:
[1] = biological target: T1, human skin fibroblast collagenase (Homo sapiens, UniProt P03956); experiment: inhibition of collagenase, synthetic thiol ester substrate, Ki (Table 1); type: biochemical
T1 construct: endogenous in cells; host or cells: human skin fibroblasts
T1 sequence (P03956 100-469): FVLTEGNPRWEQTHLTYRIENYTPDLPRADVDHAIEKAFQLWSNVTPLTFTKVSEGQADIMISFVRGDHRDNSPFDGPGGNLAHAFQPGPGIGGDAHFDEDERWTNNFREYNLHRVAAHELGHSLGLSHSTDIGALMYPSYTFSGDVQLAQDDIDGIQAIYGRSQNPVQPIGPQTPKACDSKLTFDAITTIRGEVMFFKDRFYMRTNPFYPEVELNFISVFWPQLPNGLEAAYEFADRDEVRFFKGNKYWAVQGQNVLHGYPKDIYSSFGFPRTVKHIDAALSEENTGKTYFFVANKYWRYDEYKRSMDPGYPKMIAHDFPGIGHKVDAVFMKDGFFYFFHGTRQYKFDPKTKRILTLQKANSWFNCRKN
Procedure: Specifically, assay of inhibition activity can be conducted as follows. Inhibitors may be assayed against crude or purified human skin fibroblast collagenase, or purified human gingival fibroblast collagenase using the synthetic thiol ester substrate at pH 6.5 exactly as described by Kortylewicz & Galardy, J Med Chem (1990) 33:263-273, at a collagenase concentration of 1-2 nM. The candidate inhibitors are tested for their ability to inhibit crude collagenase and gelatinase from human skin fibroblasts, crude collagenase and gelatinase from purulent human neutrophils in this assay.

[2] = biological target: T2, Natural human 72kD gelatinase (Homo sapiens, UniProt P08253); experiment: inhibition of 72kD gelatinase (Table 2); type: biochemical; conditions: read-out: 72kD G inhibitory activity
T2 sequence (P08253 110-660): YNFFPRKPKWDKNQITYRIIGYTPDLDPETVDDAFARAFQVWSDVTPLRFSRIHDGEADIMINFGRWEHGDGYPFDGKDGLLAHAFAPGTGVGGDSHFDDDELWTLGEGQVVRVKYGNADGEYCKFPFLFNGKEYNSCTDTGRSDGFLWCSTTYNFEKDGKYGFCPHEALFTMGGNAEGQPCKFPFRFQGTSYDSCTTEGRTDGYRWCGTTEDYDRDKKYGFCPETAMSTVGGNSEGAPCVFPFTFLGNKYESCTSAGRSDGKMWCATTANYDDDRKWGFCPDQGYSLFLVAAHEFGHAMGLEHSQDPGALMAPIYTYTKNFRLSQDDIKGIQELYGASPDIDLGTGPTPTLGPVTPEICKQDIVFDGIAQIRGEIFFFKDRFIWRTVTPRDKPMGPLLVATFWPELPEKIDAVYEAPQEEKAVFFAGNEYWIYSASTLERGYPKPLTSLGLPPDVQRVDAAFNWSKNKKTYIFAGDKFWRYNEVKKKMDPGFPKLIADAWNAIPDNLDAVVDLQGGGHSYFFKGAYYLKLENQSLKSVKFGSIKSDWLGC
Procedure: (§6) Specifically, assay of inhibition activity can be conducted as follows. […] Assays for inhibition of human stromelysin are conducted as described by Teahan, J., et al., Biochemistry (1989) 20:8497-8501.
(§7) Assay of inhibition activity can be conducted using a fluorogenic substrate developed by Knight et al., FEBS Letters (1992) 296:263. This method uses a fluorometer to determine the rate of substrate hydrolysis in a 96 well plate format. Reaction rates are determined at several substrate concentrations, and multiple inhibitor levels. The data are analyzed by Lineweaver-Burk, Dixon and Henderson plot analyses (Enzyme Kinetics (1975) Irwin Segal (John Wiley & Sons, Inc., publishers), and as described by Henderson, Biochem J. (1972) 127:321). The substrate levels range from 10-30μM. […] Inhibitors may be assayed against purified 72 kD gelatinase, 92 kD gelatinase, neutrophil collagenase, stromelysin or other proteases as appropriate. The enzymes are activated at 37° C. with APMA (4-aminophenylmercuric acetate), and the assays are carried out at room temperature.

92kD gelatinase = 92kD gelatinase (Homo sapiens, UniProt P14780); experiment: inhibition of 92kD gelatinase (Table 2); type: biochemical; conditions: read-out: 92kD G inhibitory activity
Stromelysin = Stromelysin (Homo sapiens, UniProt P08254); experiment: inhibition of stromelysin (Table 2); type: biochemical; conditions: read-out: Strom inhibitory activity
Procedure: as §6, §7

[3] = biological target: Recombinant neutrophil collagenase (Homo sapiens, UniProt P22894); experiment: inhibition of recombinant neutrophil collagenase (Table 2); type: biochemical; conditions: read-out: NC inhibitory activity
Procedure: as §6, §7

[4] = biological target: T3, Human gingival fibrblast collagenase (Homo sapiens, UniProt P03956); experiment: inhibition of human gingival fibroblast collagenase (Table 2); type: biochemical; conditions: read-out: HGFC inhibitory activity
T3 construct: endogenous in cells; host or cells: human gingival fibroblasts
T3 sequence (P03956 100-469): T1 sequence (P03956 100-469)
Procedure: as §6, §7

[5] = tested on: protease activity of chronic wound fluid; experiment: Azocoll assay of protease activity in chronic wound fluid; type: biochemical, human
Procedure: (§1) Fluids were collected from 3 types of human wounds termed closed spontaneously healing wounds, open slowly healing wounds, and open chronic wounds. In the first category were fluids collected from the chest wall of women following mastectomy surgery. Fluids from non-infected wounds that were left open for valid surgical reasons were considered open slowly healing wounds. An occlusive dressing was placed over the wound bed, and fluids were collected after 2-6 hours of occlusion. Finally, fluids were also collected from chronic open wounds by covering the wounds with occlusive dressings. Wounds were considered to be chronic if they were not clinically infected and had been open and not healing for more than 4 weeks.
(§2) The various wound fluids were assayed for matrix metalloproteinase activity using the Azocoll assay essentially as described by Chavira, et al., Analytic Biochemistry (1984), 136:446.
(§3) The fluids were centrifuged, and the supernatants filtered using a 0.45μ sterile Gelman filter. The filtrates were stored frozen at -80° C. until tested for protease activity.
(§4) The effects of four inhibitors on the protease activity present in wound fluids were determined. The inhibitors were: compounds
Stock solutions of the four inhibitors were all prepared at a concentration of 800 μg/ml. Due to different solubility properties of the inhibitors, different techniques were utilized. […] S1209 was dissolved in 1% DMSO then dissolved in 10 mM citrate, pH 5.5, containing 0.05% methyl cellulose. 39A was dissolved in propylene glycol (to give a final concentration of 2.4%) then dissolved in 1 mM CaCl2, 50 mM Tris-Cl, pH 7.8. 21A was dissolved in propylene glycol (2.4%) methyl cellulose (0.05%) and 10 mM citrate, pH 8.
The protease substrate, Azocoll, was obtained from Sigma Chemical Corporation and it is a substrate for collagenase/gelatinase-like metalloproteinase enzymes and general proteases. Clostridium histolyticum collagenase (the crude form of the enzyme) was from Worthington Biochemicals. General chemicals including TRIS buffer, DMSO, and CaCl2 were from Sigma Chemical Corporation.
(§5) Briefly, 900 μl of the Azocoll substrate suspension in buffer ([…] in 50 mM TRIS, pH 7.8, 1 mM CaCl2) was added to 1.5 ml microcentrifuge tubes then 50 μl of inhibitor (or buffer) and 50 μl of chronic wound fluid (or collagenase standard) were added to the reaction tube. The reaction tubes were placed at 37° C. in a shaker that inverted the tubes 30 times per minute. After 24 hours of incubation, the reaction tubes were centrifuges at 10,000 X g and the absorbance of the supernatant solution was measured at 520 nm with a Milton-Roy spectrophotometer. Proteolysis of Azocoll substrate generates soluble colored fragments from the insoluble Azocoll substrate. Wound fluid samples were incubated alone or with the inhibitors. Controls included incubation of the Azocoll substrate with the assay buffer to measure spontaneous degradation of the substrate. A standard curve for digestion of the Azocoll substrate was generated by incubation of the Azocoll with crude bacterial collagenase. Protease levels were expressed as net μg of collagenase equivalent per ml of chronic wound fluid. In the figures, certain of the wound fluids are referred to by an individual name.
For these experiments, due to the different solubility properties of the inhibitors, different techniques were utilized. […] S1209 was dissolved in 1% DMSO then dissolved in 10 mM citrate, pH 5.5, containing 0.05% methyl cellulose. 39A was dissolved in propylene glycol (to give a final concentration of 2.4%) then dissolved in 1 mM CaCl2, […] Tris-Cl, pH 7.8. 21A was dissolved in propylene glycol (2.4%) methyl cellulose (0.05%) and 10 mM citrate, pH 8.

[6] = tested on: protease activity in open and chronic wound fluids; experiment: Azocoll assay of protease activity in open and chronic wound fluids; type: biochemical, human; conditions: for inhibition of Azocoll-degrading proteases in wound fluids: FIG. 6; for effect on proteolytic activity of open and chronic wound fluids: FIG. 5
Procedure: as §1, §2, §3, §4
These inhibitors were compared to certain other inhibitors and these were UL001 [HSCH2 CH(CH2 CH(CH3)2)CO--Phe--Ala--NH2 ] obtained from Peptides International and MP506, obtained from Elastin Products. EDTA (ethylenediamine tetraacetic acid) and PMSF (phenylmethylsulfonyl fluoride) were also studied.
as §5

angiogenesis = conditions: cited from earlier work

Sequence of Recombinant neutrophil collagenase (P22894 101-467): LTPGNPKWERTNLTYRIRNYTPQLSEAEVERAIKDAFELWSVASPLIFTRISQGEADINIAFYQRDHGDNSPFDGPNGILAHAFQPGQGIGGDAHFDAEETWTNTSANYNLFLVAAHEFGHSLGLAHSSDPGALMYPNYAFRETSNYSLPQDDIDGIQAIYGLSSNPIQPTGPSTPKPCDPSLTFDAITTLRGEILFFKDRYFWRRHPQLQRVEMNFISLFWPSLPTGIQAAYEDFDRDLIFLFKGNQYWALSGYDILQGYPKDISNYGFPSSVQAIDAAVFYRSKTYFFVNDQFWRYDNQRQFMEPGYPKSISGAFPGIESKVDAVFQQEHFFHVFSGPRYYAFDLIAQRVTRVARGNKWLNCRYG
Sequence of 92kD gelatinase (P14780 107-707 limits assumed): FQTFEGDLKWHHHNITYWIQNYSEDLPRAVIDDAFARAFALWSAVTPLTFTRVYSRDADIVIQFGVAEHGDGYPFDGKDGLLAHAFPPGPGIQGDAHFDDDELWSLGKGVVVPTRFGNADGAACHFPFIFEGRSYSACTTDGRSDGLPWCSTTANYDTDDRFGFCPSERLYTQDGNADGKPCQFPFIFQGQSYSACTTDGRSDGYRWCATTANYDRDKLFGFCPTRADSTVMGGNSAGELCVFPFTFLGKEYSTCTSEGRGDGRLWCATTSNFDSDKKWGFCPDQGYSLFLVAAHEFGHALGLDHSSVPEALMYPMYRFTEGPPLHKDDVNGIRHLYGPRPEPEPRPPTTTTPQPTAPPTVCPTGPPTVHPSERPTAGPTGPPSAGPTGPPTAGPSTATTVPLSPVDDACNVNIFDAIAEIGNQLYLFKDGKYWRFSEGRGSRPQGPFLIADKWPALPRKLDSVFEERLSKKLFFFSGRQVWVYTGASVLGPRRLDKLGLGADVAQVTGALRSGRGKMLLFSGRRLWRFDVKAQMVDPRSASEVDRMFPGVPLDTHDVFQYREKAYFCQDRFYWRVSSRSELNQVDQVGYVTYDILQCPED
Sequence of Stromelysin (P08254 100-477): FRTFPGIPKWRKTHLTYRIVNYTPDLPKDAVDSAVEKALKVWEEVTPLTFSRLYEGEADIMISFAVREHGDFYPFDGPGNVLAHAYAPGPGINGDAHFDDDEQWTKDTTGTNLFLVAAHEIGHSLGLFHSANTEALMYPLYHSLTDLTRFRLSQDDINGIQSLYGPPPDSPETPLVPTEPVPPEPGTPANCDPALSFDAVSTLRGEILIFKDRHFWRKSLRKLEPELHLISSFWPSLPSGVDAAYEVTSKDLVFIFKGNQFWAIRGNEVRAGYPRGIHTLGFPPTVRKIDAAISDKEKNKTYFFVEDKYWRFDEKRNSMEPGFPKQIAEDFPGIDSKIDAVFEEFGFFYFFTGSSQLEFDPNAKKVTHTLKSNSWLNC

| SMILES | Ki [2] | Ki (92kD gelatinase) | Ki (Stromelysin) | Ki [3] | Ki [4] | other results |
| --- | --- | --- | --- | --- | --- | --- |
| CCCCCCCCCCCCNC(=O)[C@H](Cc1c[nH]c2ccccc12)NC(=O)C(CC(=O)NO)CC(C)C (single isomer, unassigned) [Compound 19A, N-[2-isobutyl-3-(N'-hydroxyamidocarbonyl)-propanoyl]-L-tryptophan dodecylamide] | 0.37 nM | 1.29 nM | 40 nM | 0.62 nM |  | Ki [1]: 300 nM |
| CC(C)CC(CC(=O)NO)C(=O)N[C@@H](Cc1c[nH]c2ccccc12)C(=O)NCCCCCCNC(=O)OCc1ccccc1 (stereo partly drawn) [Compound 27A, N-[L-2-isobutyl-3-(N'-hydroxyamidocarbonyl)-propanoyl]-L-tryptophan(6-phenyl-methoxycarbonyl-1-aminohexyl)amide] | 2.9 nM |  | 94 nM | 21 nM | 0.1 nM | Ki [1]: 13 nM |
| CC(C)CC(CC(=O)NO)C(=O)N[C@@H](Cc1c[nH]c2ccccc12)C(=O)NC1CCCCC1 (stereo partly drawn) [Compound 28A, N-[L-2-Isobutyl-3-(N'-hydroxyamidocarbonyl)-propanoyl]-L-tryptophan cyclohexylamide] | 4 nM |  | 78 nM | 1 nM | 0.1 nM | Ki [1]: 50 nM |
| CC(C)C[C@H](CC(=O)O)C(=O)N[C@@H](Cc1c[nH]c2ccccc12)C(=O)NCCCN1CCOCC1 [Compound 48] | 145 nM | 65 nM | 19300 nM | 32 nM |  |  |
| CC(C)C[C@H](CC(=O)NO)C(=O)N[C@@H](Cc1c[nH]c2ccccc12)C(=O)NCCN1CCOCC1 [Compound 52, N-[2-Isobutyl-3-(N'-hydroxyamidocarbonyl)-propanoyl]-L-tryptophan-3(4-morpholinyl)-n-ethylamide] | 0.81 nM | 0.97 nM | 57 nM | 0.19 nM | 0.6 nM |  |
| CC(C)C[C@H](CC(=O)O)C(=O)N[C@@H](Cc1c[nH]c2ccccc12)C(=O)NCc1ccccc1 [Compound 57, N-[2-Isobutyl-3-hydroxycarbonylpropanoyl]-L-tryptophan-benzylamide] | 57 nM | 37 nM | 5140 nM | 20 nM | 2.2 nM |  |
| C[C@H](NC(=O)[C@H](Cc1c[nH]c2ccccc12)NC(=O)[C@@H](CCC(=O)O)NC(=O)OC(C)(C)C)c1ccccc1 [Compound 78] | > 10000 nM | > 10000 nM | > 10000 nM | > 10000 nM | 2000 nM |  |
| C[C@H](NC(=O)[C@H](Cc1c[nH]c2ccccc12)NC(=O)[C@@H](CCC(=O)NO)NC(=O)OC(C)(C)C)c1ccccc1 [Compound 79, Boc-D-gamma-Hydroxamidoglutamyl-L-tryptophan-(S)-methylbenzylamide] | > 10000 nM | 21100 nM | > 10000 nM | > 10000 nM | 60 nM |  |
| C[C@H](NC(=O)[C@H](Cc1c[nH]c2ccccc12)NC(=O)[C@@H](CC(=O)O)NC(=O)OC(C)(C)C)c1ccccc1 [Compound 81] | > 10000 nM | > 10000 nM | > 10000 nM | > 10000 nM | 500 nM |  |
| C[C@H](NC(=O)[C@H](Cc1c[nH]c2ccccc12)NC(=O)[C@@H](CC(=O)NO)NC(=O)OC(C)(C)C)c1ccccc1 [Compound 82, Boc-D-beta-hydroxamidoaspartyl-1 -tryptophan-(S)-methylbenzylamide] | 9260 nM | 3580 nM | > 10000 nM | 3260 nM | 80 nM |  |
| CNC(=O)C(Cc1ccc(OC)cc1)NC(=O)C(CC(=O)NO)CC(C)C (stereo not drawn) [Compound S1209] |  |  |  |  |  | inhibition of protease activity of chronic wound fluid ([5]; FIG. 7, highest concentration (800 μg/ml)): 70%; inhibition of Azocoll-degrading proteases in wound fluids [6]: very effectively; also recorded: very effective inhibitors |
| O=C(O)CN(CCN(CC(=O)O)CC(=O)O)CC(=O)O [EDTA, ethylenediamine tetraacetic acid, reference compound] |  |  |  |  |  | effective concentrations (order of magnitude) ([5]; FIG. 4): mM; inhibition of protease activity of a chronic wound fluid ([5]; FIG. 4): effectively inhibited; reduction of protease activity ([5]; FIG. 4, EDTA at mM concentrations): approximately 96%; effect on proteolytic activity of open and chronic wound fluids [6]: very effective inhibitors; inhibition of Azocoll-degrading proteases in wound fluids [6]: very effectively; reduction of proteolytic activity in open or chronic wound fluids ([6]; fluids with high levels of Azocoll-degrading protease activity): 95% |
| O=S(=O)(F)Cc1ccccc1 [PMSF, phenylmethylsulfonyl fluoride, reference compound] |  |  |  |  |  | inhibition of protease activity of a chronic wound fluid ([5]; FIG. 4): not an effective inhibitor except at the highest concentration; reduction of proteolytic activity ([5]; FIG. 4, 500 μM): approximately 65%; effect on levels of protease activity at lower concentrations ([5]; FIG. 4, PMSF 500 μM and 50 μM): slightly increase the levels of protease activity; effect on proteolytic activity of open and chronic wound fluids [6]: did not significantly reduce the proteolytic activity; also recorded: did not reduce the levels of proteolytic activity |
| CC(C)CC(CS)C(=O)N[C@@H](Cc1ccccc1)C(=O)N[C@@H](C)C(N)=O (stereo partly drawn) [UL001] |  |  |  |  |  | inhibition of Azocoll-degrading proteases in wound fluids [6]: very effectively |
| CCCCC[C@H](CC(=O)NO)C(=O)N[C@H](C(=O)N1CCC[C@H]1CO)C(C)C [actinonin] |  |  |  |  |  | activity as an angiogenesis inhibitor (angiogenesis): angiogenesis inhibitor |
